Turning to `CNC(=O)c1c(NCC2CCC3(CCC3)CC2)nc(C#N)nc1OCCC1CC[NH+](C)CC1`, the pKa – broadly, the pH at which an ionisable group is half protonated – was determined as 10.2. `CC(C)N(CCCCOCC(=O)NS(C)(=O)=O)c1cnc(-c2ccccc2)c(-c2ccccc2)n1` gave a pKa of 3.37. In turn, `C[C@@H](NC(=O)c1cc(C(=O)N[C@@H](Cc2ccccc2)[C@H](O)C[NH2+]C2CC2)cc(N(C)S(C)(=O)=O)c1)c1ccc(F)cc1` gave a pKa of 7.7. Take `O=NC(=O)CCc1ccc(C[NH2+]CC23CC4CC(CC(C4)C2)C3)cc1`: the pKa amounted to 8.85. As for `CNC(=O)c1c(NCC2CCC3(CCC3)CC2)nc(C#N)nc1OC1CC(C)(C)[NH2+]C(C)(C)C1`, the pKa was 9.2.

In the case of `Cc1[nH]c2ccccc2c1CC[NH+]1CCc2cc(CCC(=O)N=O)ccc2C1`, the pKa amounted to 7.96. In the case of `C/C(=C\c1ccccn1)[C@@H]1C[C@@H]2O[C@]2(C)CCC[C@H](C)[C@H](O)[C@@H](C)C(=O)C(C)(C)[C@@H](O)CC(=O)O1`, the pKa was 5. On the same count and under the same terms, the figure for `CC(C)[NH+](CCc1c(C(C)(C)O)[nH]c2ccccc12)Cc1ccc(CCC(=O)N=O)cc1` is 9.01; for `CC(=O)Nc1cc(Cl)ccc1/C=C/C(=O)N1CC[NH+](Cc2ccc(F)cc2)C[C@H]1C` it is 5.9. For the molecule `Cc1ccnc(N2CCC3(CCCN(Cc4c[nH]c5ccccc45)C3=O)CC2)n1`, the pKa is 4.2. In the case of `O=c1[nH]c(-c2ccc(C(F)(F)F)cc2)nc2c1CSCC2`, the pKa worked out at 7.94.

In turn, `Cn1c(N)nc2ccccc2c1=O` came in with a pKa of 5.2. On the same count and under the same terms, the figure for `CC#CCn1c(N2CC[NH2+]CC2)c(C#N)c2ncn(CC(=O)c3cccc(OC)c3)c(=O)c21` is 8.2; for `OCCn1cc(-c2cnc3nnn(Cc4ccc5ncccc5c4)c3n2)cn1` it is 4.6; for `CCN1c2ccc(C#N)cc2N=C(c2ccc(C(=O)[O-])c(F)c2)c2cc3c(cc21)C(C)(C)CCC3(C)C` it is 3. As for `Cc1nc(N2CCN(CC3CC3)C2=O)sc1C(=O)NCc1cccnc1`, the pKa was 5. As to `O=NC(=O)CCc1ccc(C[NH+]2CCC(c3c[nH]c4ccccc34)CC2)cc1`, the pKa stood at 8.55. On the same count and under the same terms, as for `O=C(NCC[NH+]1CCC(n2c(=O)[nH]c3cc(F)ccc32)CC1)c1ccc(F)cc1`, the figure is 8.77; as for `Cc1ccc(-c2cc(C(F)(F)F)nn2-c2ccc(S(N)(=O)=O)cc2)cc1`, 9.46. In turn, `COc1ccc(-c2c(C)nc3c(-c4ccccn4)cnn3c2N)cc1` displayed a pKa of 6.07.

`Cc1ccc(C)n1-c1ccc(Cl)cc1C(=O)[O-]` gave a pKa of 3.35.

`Clc1ccc(-c2ccc(-c3ccnc(N4CC[NH2+]CC4)n3)s2)cc1`: the pKa is 8.9. Molecule `CS(=O)(=O)Nn1c(=O)[nH]c2cc(C(F)(F)F)ccc2c1=O` had a pKa of 8.35. Same read-out and setting: the figure for `CNc1nc2ccccc2n(C)c1=O` is 4.25; for `CCCCCCCCc1ccc(CCC([NH3+])(CO)CO)cc1` it is 8.52; for `Cc1ccc(Nc2ncc(C(=O)N3CCCCC3)cc2Cl)cn1` it is 5.2.

In turn, `Cc1ccc(-c2ncc(Cl)cc2-c2ccc(S(C)(=O)=O)cc2)cn1` had a pKa of 4.63. The same measure, in the same setting: the figure for `CC(C)n1c(/C=C/[C@H](O)C[C@H](O)CC(=O)[O-])c(-c2ccc(F)cc2)c2ccccc21` is 4.5; for `CCCCC[C@H](O)CC[C@@H]1[C@H]2Cc3cccc(OCC(=O)[O-])c3C[C@H]2C[C@H]1O` it is 3.37. In turn, `COc1ccc(C#CC(C)(C)[NH3+])cc1C(=O)c1ccc(Nc2ccc(F)cc2F)cc1` returned a pKa of 8.1.

The source holds these as a separate data set.
`Cc1nc(C#Cc2ccnc(Cl)c2)c(C)n1-c1ccc(F)cc1` returned a pKa of 4.35. In turn, `O=C([O-])c1ccc(-c2nn(C(=O)c3c(Cl)cccc3Cl)c3ccccc23)cc1` had a pKa of 3.2. Take `COc1cccc(-c2nnc3n(Cc4ccccc4Cl)c(=O)c4ccccc4n23)c1O`: the pKa was 8.4.

The molecule `Nc1nccc(N2CCc3ccc(Br)cc32)n1` showed a pKa of 6.9.

`O=c1ccc2nc3ccc(O)cc3oc-2c1` yielded a pKa of 5.8. Turning to `CS(=O)(=O)c1ccc(-c2cnc(N)c(-c3ccc(C(F)(F)F)nc3)c2)cc1`, the pKa came out at 4.8. As for `N#Cc1ccc2[nH]cc(-c3ccnc(N)n3)c2c1`, the pKa turned out to be 5.3. `CCc1ccccc1N(CC)C(=O)C1CCN(c2ncnc3c2nc2n3CCCCC2)CC1` showed a pKa of 3.9. On the same count and under the same terms, as for `CC(NC(=O)c1ccccc1/N=C/c1c(O)ccc2ccccc12)c1ccccc1` (centres undefined), the figure is 6.9; as for `Cc1cc(N)nc2ccccc12`, 7.9; as for `COc1ccc(/C=C/C(=O)N2CCN(c3ccccn3)CC2)cc1`, 5.3. Take `COc1cccc(-c2cnc(N)c(-c3ccc(C(N)=O)cc3)c2)c1`: the pKa came to 5.3. For the molecule `O=C([O-])CSc1ncnc2cc(-c3ccc(Br)cc3)sc12`, the pKa turned out to be 3.5. Molecule `COc1ccc(-c2cnc3c(-c4cccc5ncccc45)cnn3c2)cc1` came in with a pKa of 4.4. `COC(=O)Cn1c(C[NH+]2CCC(Cc3ccccc3)CC2)nc2c1c(=O)n(C)c(=O)n2C` yielded a pKa of 6.

Turning to `C[C@H](C#Cc1ccc(Cc2ccc(F)cc2)s1)N(O)C(N)=O`, the pKa turned out to be 10.4. In turn, `NC(=O)c1ccc(-c2cc(-c3ccccc3)cnc2N)cc1` displayed a pKa of 5.4. On to `O=C(Nc1cccc(Cl)c1)c1ccccc1O`, for which the pKa was determined as 7.2. The same measure, in the same setting: as for `N#Cc1c(-c2ccc(Cl)cc2)nc(SCC(=O)Nc2ccc(Cl)cc2)[nH]c1=O`, the figure is 3.7; as for `NC(=O)c1cccc(-c2cc(Nc3ccc(OC(F)(F)F)cc3)ncn2)c1`, 4. Still for that read-out and setting: as for `COC(=O)c1ccc2[nH]cc(CN3CCCC4(CCN(c5nc(C)cc(C)n5)CC4)C3=O)c2c1`, the figure is 4.8; as for `Cc1cc(C)nc(N2CCC3(CCCN(Cc4nn(C)nc4-c4ccccc4)C3=O)CC2)n1`, 4.7. Molecule `Cc1cc(C)nc(N2CCC3(CCCN(Cc4nn(C)cc4-c4ccccc4)C3=O)CC2)n1` showed a pKa of 4.75. The pKa values of the last two molecules are within 0.2 log units of each other. Molecule `O=C([O-])c1ccccc1Nc1cc(F)cc(C(F)(F)F)c1` yielded a pKa of 3.9. As for `Fc1ccccc1C1=Cc2ccccc2C2=[NH+]CCN12`, the pKa was 10.2. As for `O=C(Cc1ccccc1)N1CCCC12CCN(c1cnc3ccccc3n1)CC2`, the pKa was 3.6. Turning to `O=C1N(Cc2cccc3[nH]ccc23)CCCC12CCN(c1cnc3ccccc3n1)CC2`, the pKa is 3.75. This pKa and that of the molecule before are within 0.2 log units of each other. `O=C(NC(=O)c1ccccc1)c1ccccc1` returned a pKa of 9.9. For the molecule `c1ccc(-c2nc3n(c2-c2ccccc2)CCS3)cc1`, the pKa amounted to 4.8. Turning to `O=C(Nc1ccccc1C(=O)[O-])c1ccc(-c2ccccc2)cc1`, the pKa turned out to be 3.2. Molecule `CNC(=O)c1nc(-c2ccc(Cl)c(S(=O)(=O)Nc3cccc(F)c3C)c2)cnc1N` showed a pKa of 7.6. In the case of `O=C(CSc1nccn1C1CCCC1)Nc1ccc(C(F)(F)F)cc1`, the pKa was 5.1.

Take `c1ccc(N2CC[NH2+]CC2)cc1`: the pKa came out at 9. `O=C(NO)C1c2ccccc2-c2ccccc21`: the pKa is 8.7.

In the case of `O=C([O-])COc1ccc2c(c1)Cc1ccccc1-2`, the pKa is 3. Consider `C=CC(=O)Nc1cccc(Nc2nc(Nc3ccc(OCCOC)cc3)ncc2F)c1`, for which the pKa was found to be 4.8. Turning to `O=C(Nc1nccs1)C(CC1CCCC1)c1ccc(Cl)cc1` (centres undefined), the pKa was 10.5. In turn, `O=S(=O)(Nc1cc(F)ccc1F)c1ccc2[nH]c3c(c2c1)CCCC3` gave a pKa of 7.3.

Consider `O=C(Nc1cccc(Cl)c1)c1ccc(Cl)cc1O`, for which the pKa is 6.3.
